The term EC50 denotes the concentration that produces a half-maximal response. Broadly, the Emax is the maximal effect, on the per cent scale that the assay sets.

EC50 and Emax data for 21 molecules are collected here from patent US20260098026A1, “M4 ACTIVATORS/MODULATORS AND USES THEREOF” (Cerevel Therapeutics, LLC, priority 2022, published 2026).

T1 sequence (P20309 whole entry): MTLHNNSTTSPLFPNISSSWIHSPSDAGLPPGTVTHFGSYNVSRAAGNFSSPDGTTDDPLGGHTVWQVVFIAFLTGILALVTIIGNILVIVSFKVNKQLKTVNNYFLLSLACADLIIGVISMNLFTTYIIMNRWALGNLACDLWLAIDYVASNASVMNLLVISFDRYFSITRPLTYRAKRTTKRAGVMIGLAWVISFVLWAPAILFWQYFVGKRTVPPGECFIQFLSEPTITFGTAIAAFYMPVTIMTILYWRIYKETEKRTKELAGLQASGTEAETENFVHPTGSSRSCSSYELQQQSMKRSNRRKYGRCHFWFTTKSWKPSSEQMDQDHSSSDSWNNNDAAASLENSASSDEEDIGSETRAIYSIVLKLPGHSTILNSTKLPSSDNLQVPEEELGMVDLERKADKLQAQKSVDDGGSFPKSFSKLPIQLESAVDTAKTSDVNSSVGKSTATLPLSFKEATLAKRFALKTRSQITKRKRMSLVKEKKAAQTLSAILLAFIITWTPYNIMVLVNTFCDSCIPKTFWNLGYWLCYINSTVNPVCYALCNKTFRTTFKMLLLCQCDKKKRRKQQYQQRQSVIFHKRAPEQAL

One experiment concerns the target T1, M3 muscarinic acetylcholine receptor (mAChR) (Homo sapiens, UniProt P20309).
T1 construct: expressed in transfected cells; host or cells: CHO-K1
Put plainly: FLIPR calcium assay (Fluo 8), M3-overexpressing CHO-K1 cells. It is filed as cell-based. The following applies: FLIPR. The method, then:
Stimulation of a Gq-coupled G-protein coupled receptors (GPCRs), result in an efflux of calcium from the endoplasmic reticulum to the cytoplasm (Berridge, 1993), thus rendering this assay appropriate for the assessment of M1, M3 and M5 receptors. CHO-K1 cells overexpressing the M1, M3, or M5 muscarinic acetylcholine receptor (mAChR) were dispensed at 15,000 cells per well in 30 μl volume to 384-well plates and grown overnight at 37° C. in a 5% CO2 atmosphere. Fluo-8 Solution, 10 μl per well, was added to each well and incubated for 30 minutes at 37° C. in a 5% CO2 atmosphere. Compounds diluted in Hanks' balanced salt solution (HBSS) were transferred to the cell assay plate at 10 μl per well, and then read on a FLIPR instrument. EC50 and Emax figures were calculated from the resulting data for each receptor subtype.
On to `CCOC(=O)N1CC2(CC[C@@H](N3CCN(c4cc(F)cnc4OC4CC5(COC5)C4)CC3)C2)C1` [Compound A233], for which the EC50 was above 10 µM.

Take `CCOC(=O)N1CC2(CC[C@@H](N3CCN(c4cc(Cl)cnc4-c4cnccn4)CC3)C2)C1` [Compound A221]: the EC50 was above 10 µM.

In the case of `CCOC(=O)N1CC2(CC[C@@H](N3CCN(c4cc(F)cnc4-c4ccc(C)nc4)CC3)C2)C1` [Compound A186], the EC50 was above 10 µM.

Regarding `CCOC(=O)N1CC2(CC[C@@H](N3CCN(c4cc(F)cnc4-c4ccc(C)cn4)CC3)C2)C1` [Compound A228], the EC50 was above 10 µM.

For `CCOC(=O)N1CC2(CC[C@@H](N3CCN(c4cc(F)cnc4-c4ncccc4F)CC3)C2)C1` [Compound A283], the EC50 is above 10 µM.

For `CCOC(=O)N1CC2(CC[C@@H](N3CCN(c4cc(F)cnc4-c4ccn5ncnc5c4)CC3)C2)C1` [Compound A177], the EC50 was above 10 µM.

For the molecule `CCOC(=O)N1CC2(CC[C@@H](N3CCN(c4cc(F)cnc4-c4cccnc4F)CC3)C2)C1` [Compound A179], the EC50 was above 10 µM.

For `CCOC(=O)N1CC2(CC[C@@H](N3CCN(c4cc(F)cnc4-n4cnc(C)c4)CC3)C2)C1` [Compound A290], the EC50 is above 10 µM.

Consider `CCOC(=O)N1CC2(CC[C@@H](N3CCN(c4cc(Cl)cnc4-c4ccc(F)cn4)CC3)C2)C1` [Compound A252], for which the EC50 is above 10 µM.

For `CCOC(=O)N1CC2(CC[C@@H](N3CCN(c4cc(F)cnc4-c4ccc(C#N)cc4)CC3)C2)C1` [Compound A182], the EC50 was above 10 µM.

`CCOC(=O)N1CC2(CC[C@@H](N3CCN(c4cc(F)cnc4-c4cnc(C(F)F)cn4)CC3)C2)C1` [Compound A253]: the EC50 was above 10 µM.

For the molecule `CCOC(=O)N1CC2(CC[C@@H](N3CCN(c4cccnc4N4CCCCC4)CC3)C2)C1` [Compound A215], the EC50 was above 10 µM.

In the case of `CCOC(=O)N1CC2(CC[C@H](N3CCC(c4cc(F)cnc4-c4ccc(F)cn4)CC3)C2)C1` [Compound A293], the EC50 is above 10 µM.

`CCOC(=O)N1CC2(CC[C@@H](N3CCN(c4cc(F)cnc4-c4ccc(OC)nc4)CC3)C2)C1` [Compound A188]: the EC50 is above 10 µM.

For the molecule `CCOC(=O)N1CC2(CC[C@@H](N3CCN(c4cc(F)cnc4-c4ccc(CCO)cc4)CC3)C2)C1` [Compound A169], the 50% effective concentration (EC50) is above 10 µM.

`CCOC(=O)N1CC2(CC[C@@H](N3CCN(c4cc(F)cnc4-c4c(O)cccc4F)CC3)C2)C1` [Compound A167]: the EC50 was above 10 µM.

As for `CCOC(=O)N1CC2(CC[C@@H](N3CCN(c4cc(F)cnc4-c4ccc(OC)nc4F)CC3)C2)C1` [Compound A180], the EC50 was above 10 µM.

`CCOC(=O)N1CC2(CC[C@@H](N3CCN(c4cc(F)cnc4-c4cccn(C)c4=O)CC3)C2)C1` [Compound A203]: the EC50 is above 10 µM.

Consider `CCOC(=O)N1CC2(CC[C@@H](N3CCN(c4cc(F)cnc4OC4CCOCC4)CC3)C2)C1` [Compound A229], for which the EC50 is above 10 µM.

Still in this experiment, the particulars now being: FLIPR calcium.
Turning to `CCOC(=O)N1CC2(CC[C@@H](N3CCN(c4cc(F)cnc4-c4ccnc(C)c4)CC3)C2)C1` [Compound A98], the EC50 is above 10 µM.

Consider `CCOC(=O)N1CC2(CC[C@@H](N3CCN(c4cc(F)cnc4-c4cccc(C)n4)CC3)C2)C1` [Compound A135], for which the EC50 was above 10 µM.

The next experiment addresses T2, M4 mAChR (Homo sapiens, UniProt P08173).
T2 construct: expressed in transfected cells; host or cells: CHO-K1
T2 sequence (P08173 1-479): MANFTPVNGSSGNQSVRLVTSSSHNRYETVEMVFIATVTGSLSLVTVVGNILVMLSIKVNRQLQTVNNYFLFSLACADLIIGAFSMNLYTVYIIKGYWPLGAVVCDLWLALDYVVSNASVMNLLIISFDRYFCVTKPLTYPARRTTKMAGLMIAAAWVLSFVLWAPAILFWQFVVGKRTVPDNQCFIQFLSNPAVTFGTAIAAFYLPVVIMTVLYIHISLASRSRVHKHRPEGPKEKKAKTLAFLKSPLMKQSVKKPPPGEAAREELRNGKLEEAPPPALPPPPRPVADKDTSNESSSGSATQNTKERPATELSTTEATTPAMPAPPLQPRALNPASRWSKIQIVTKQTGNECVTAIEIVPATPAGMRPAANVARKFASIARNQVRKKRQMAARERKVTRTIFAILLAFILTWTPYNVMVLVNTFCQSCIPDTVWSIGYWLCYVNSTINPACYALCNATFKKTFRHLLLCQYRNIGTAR
As to the kind of experiment: cAMP TR-FRET assay with forskolin, M4-overexpressing CHO-K1 cells. It is filed as cell-based. The following applies: cAMP TR-FRET with forskolin. The source says: The M2 and M4 mACh receptors are Gi-coupled receptors which, upon activation, produce a decrease in cAMP. Assays were developed that measured the potency and efficacy of compounds at the M2 or M4 mAChR using M2- or M4-overexpressing CHO-K1 cell lines. Time-resolved fluorescence resonance energy transfer (TR-FRET) technology was used, where signal occurs as a result of transfer of energy if the donor molecule is in close proximity to an acceptor molecule when the molecules have bound to the molecule of interest. The cAMP detection is a competition binding assay, where cAMP produced by cells competes for binding with the labeled donor molecule to the anti-cAMP acceptor antibody. Due to the low basal levels of cAMP in the CHO-K1 cell line, forskolin was used to increase cAMP levels to enable assessment of agonist activity at the mAChR of interest.
In general terms: In TR-FRET formats the signal depends on donor and acceptor labels being close together.
`CCOC(=O)N1CC2(CC[C@@H](N3CCN(c4cc(F)cnc4-c4ccnc(C)c4)CC3)C2)C1` [Compound A98] returned an Emax of 80 to 100%.

In the case of `CCOC(=O)N1CC2(CC[C@@H](N3CCN(c4cc(F)cnc4-c4cccc(C)n4)CC3)C2)C1` [Compound A135], the Emax lay in the range of 19 to 49.9%.

Still in this experiment, the particulars now being: cAMP assay.
As for `CCOC(=O)N1CC2(CC[C@@H](N3CCN(c4cc(F)cnc4OC4CC5(COC5)C4)CC3)C2)C1` [Compound A233], the Emax lay within 80 to 100%.

`CCOC(=O)N1CC2(CC[C@@H](N3CCN(c4cc(Cl)cnc4-c4cnccn4)CC3)C2)C1` [Compound A221] gave an Emax of 80 to 100%.

In turn, `CCOC(=O)N1CC2(CC[C@@H](N3CCN(c4cc(F)cnc4-c4ccc(C)nc4)CC3)C2)C1` [Compound A186] came in with an Emax of 80 to 100%.

Consider `CCOC(=O)N1CC2(CC[C@@H](N3CCN(c4cc(F)cnc4-c4ccc(C)cn4)CC3)C2)C1` [Compound A228], for which the maximal effect (Emax) lay within 80 to 100%.

Consider `CCOC(=O)N1CC2(CC[C@@H](N3CCN(c4cc(F)cnc4-c4ncccc4F)CC3)C2)C1` [Compound A283], for which the Emax lay within 80 to 100%.

The molecule `CCOC(=O)N1CC2(CC[C@@H](N3CCN(c4cc(F)cnc4-c4ccn5ncnc5c4)CC3)C2)C1` [Compound A177] showed an Emax of 80 to 100%.

For `CCOC(=O)N1CC2(CC[C@@H](N3CCN(c4cc(F)cnc4-c4cccnc4F)CC3)C2)C1` [Compound A179], the Emax lay within 80 to 100%.

For the molecule `CCOC(=O)N1CC2(CC[C@@H](N3CCN(c4cc(F)cnc4-n4cnc(C)c4)CC3)C2)C1` [Compound A290], the Emax lay in the range of 80 to 100%.

`CCOC(=O)N1CC2(CC[C@@H](N3CCN(c4cc(Cl)cnc4-c4ccc(F)cn4)CC3)C2)C1` [Compound A252] had an Emax of 80 to 100%.

As to `CCOC(=O)N1CC2(CC[C@@H](N3CCN(c4cc(F)cnc4-c4ccc(C#N)cc4)CC3)C2)C1` [Compound A182], the Emax is 80 to 100%.

Regarding `CCOC(=O)N1CC2(CC[C@@H](N3CCN(c4cc(F)cnc4-c4cnc(C(F)F)cn4)CC3)C2)C1` [Compound A253], the Emax fell in the range of 80 to 100%.

`CCOC(=O)N1CC2(CC[C@@H](N3CCN(c4cccnc4N4CCCCC4)CC3)C2)C1` [Compound A215] yielded an Emax of 80 to 100%.

With `CCOC(=O)N1CC2(CC[C@H](N3CCC(c4cc(F)cnc4-c4ccc(F)cn4)CC3)C2)C1` [Compound A293], the Emax was 80 to 100%.

Take `CCOC(=O)N1CC2(CC[C@@H](N3CCN(c4cc(F)cnc4-c4ccc(OC)nc4)CC3)C2)C1` [Compound A188]: the Emax is 80 to 100%.

The molecule `CCOC(=O)N1CC2(CC[C@@H](N3CCN(c4cc(F)cnc4-c4ccc(CCO)cc4)CC3)C2)C1` [Compound A169] showed an Emax of 80 to 100%.

As to `CCOC(=O)N1CC2(CC[C@@H](N3CCN(c4cc(F)cnc4-c4c(O)cccc4F)CC3)C2)C1` [Compound A167], the Emax fell in the range of 80 to 100%.

`CCOC(=O)N1CC2(CC[C@@H](N3CCN(c4cc(F)cnc4-c4ccc(OC)nc4F)CC3)C2)C1` [Compound A180]: the Emax lay in the range of 80 to 100%.

With `CCOC(=O)N1CC2(CC[C@@H](N3CCN(c4cc(F)cnc4-c4cccn(C)c4=O)CC3)C2)C1` [Compound A203], the Emax fell in the range of 19 to 49.9%.

With `CCOC(=O)N1CC2(CC[C@@H](N3CCN(c4cc(F)cnc4OC4CCOCC4)CC3)C2)C1` [Compound A229], the Emax was in the range of 80 to 100%.
